Results reported in US20260191933A1, “PHARMACEUTICAL COMBINATIONS AND USES THEREOF” (The University of Melbourne, priority 2022, published 2026).

Experiments:
[1] = test system: HFHS plus low dose STZ mice; test: I.C.V. fluorosamine in late-stage type-2 diabetes model (HFHS plus low dose streptozotocin); assay type: in vivo, C57BL/6J mice; settings: I.C.V. for 14 days
Protocol: Mice were maintained on a 12 h light-dark cycle in a temperature-controlled high-barrier facility with free access to food and water per NHMRC Australian Code of Practice for the Care and Use of Animals. C57BL/6J and Balb/C mice were sourced from the Animal Resources Centre, Australian, whereas Agrp-IRES-Cre (Strain #:012899), db/db (strain #: 000697), Npy-GFP (Strain #:006417), Pomc-GFP (Strain #:009593), LSL-Cas9 (Strain #:028551), NZO (Strain #:002105) mice were sourced from Jackson Laboratories, USA. […]
Metabolic measurements were undertaken in the Melbourne Mouse Metabolic Phenotyping Platform (The University of Melbourne, Australia). […] The areas under glucose excursion curves were determined and expressed as mmol/l×min. Fasted (12 h fast) plasma insulin or glucose levels were determined using a Rat/Mouse Insulin ELISA (EZRMI-13K, Merck Millipore, CA) or an Accu-Check glucometer respectively. The HOMA-IR was calculated using the equation [(glucose×insulin)/405]. Adiposity was measured using TD-NMR minispec (Bruker Optics Inc., Billerica, MA). […]

[2] = test system: 12-week-HFHS-diet-fed obese mice; test: Intranasal PZ6005 in obese mice: I.P. GTT, ITT, fasting glucose; assay type: in vivo, C57BL/6J mice
Protocol: Metabolic measurements were undertaken in the Melbourne Mouse Metabolic Phenotyping Platform (The University of Melbourne, Australia). Glucose tolerance tests were performed on 6 h fasted conscious mice respectively by injecting D-glucose (2 mg/g of lean body mass and 1 mg/g lean mass for db/db and HFHS+STZ mice) into the peritoneal cavity and measuring glucose in tail blood immediately before and at 15, 30, 45, 60, 90 and 120 min after injection using an Accu-Check glucometer (Roche, Germany). The areas under glucose excursion curves were determined and expressed as mmol/l×min. Fasted (12 h fast) plasma insulin or glucose levels were determined using a Rat/Mouse Insulin ELISA (EZRMI-13K, Merck Millipore, CA) or an Accu-Check glucometer respectively. The HOMA-IR was calculated using the equation [(glucose×insulin)/405]. Adiposity was measured using TD-NMR minispec (Bruker Optics Inc., Billerica, MA).

ARC CSPG-ECM = test: I.C.V. PZ6005 and/or S.C. liraglutide, 28-day treatment: ARC CSPG-ECM (WFA); assay type: in vivo, C57BL/6j mice; settings: PZ6005 100 μg/animal I.C.V. every other day first 14 days; liraglutide 200 μg/kg/day S.C. 28 days
Protocol: All image quantification was performed in Image J (NIH) software (NIH, MA). Raw images underwent background subtraction using a rolling ball algorithm to minimize background and any potential variance in tissue autofluorescence. To quantify area and intensity of the CSPG-ECM within each brain region (ARC, VMH or RSG cortex) images were thresholded and binarized to create a region of interest (ROI) mask of only the CSPG-ECM. For each brain area, CSPG-ECM ROI area (μm^2) and intensity (sum of all pixel intensities within the ROI) was calculated. This process was automated to minimise bias and to account for differences in brain nuclei size across multiple images. Brain nuclei were defined in accordance with the Paxinos and Franklin mouse brain atlas (http://labs.gaidi.ca/mouse-brain-atlas/). The area and intensity of CSPG-ECM within each region was normalised to the respective control.

[3] = test system: insulin induced p-AKT signalling in the ARC; test: I.C.V. fluorosamine: insulin-induced p-AKT in the ARC; assay type: in vivo, C57BL/6J mice; settings: following 10 days I.C.V. treatment
Protocol: Mice were injected intraperitoneally with vehicle (PBS) or insulin (3 mU/g, i.p., Actrapid, Nova Nordisk, Denmark) and mice were transcardially perfused (as described above) 15 min with 10% neutral buffered formalin. The brains were post-fixed for 16 h on a rocking platform at RT and then kept for two days in 30% sucrose in PBS to cryoprotect the tissue, before freezing on dry ice. 30 μm sections were cut in the coronal plane throughout the entire rostral-caudal extent of the hypothalamus. Sections were pre-treated for 10 mins in 0.3% glycine, washed in PBS-T and incubated for 10 min in 0.03% SDS. Sections were then blocked in 5% blocking buffer for 1 h at RT and incubated for 48 h with rabbit anti-p-AKT (Ser-473) (1:300; #4060, Cell Signaling Technology, Beverly, MA) in 1% blocking buffer. Sections were then incubated in 5% blocking buffer containing either goat anti-rabbit Alexa Fluor 647 (ab150083, Abcam, Cambridge, UK) or biotinylated goat anti-rabbit (BA-1000, Vector Laboratories, CA, no sodium azide in blocking buffer). […]

CC(=O)NC1C(OC(C)=O)OC(COC(C)=O)[C@@H](F)C1OC(C)=O (stereo partly shown) [PZ6005, per-O-acetylated-4-F-N-acetylglucosamine]
remission of metabolic disease (daily blood glucose, glucose tolerance) [1]: promote the remission of metabolic disease
fasting (12 hrs) glucose level ([2]; both doses of intranasal treatment): Reduction
insulin sensitivity (I.P. ITT) ([2]; intranasal 1 or 5 mg/animal/day, 4 hrs fasting): enhanced insulin sensitivity
glucose tolerance (I.P. GTT) ([2]; intranasal 1 or 5 mg/animal/day, 6 hrs fasting, vs control littermates): better glucose tolerance
ARC CSPG-ECM intensity reduced by, compared with the mice receiving liraglutide (ARC CSPG-ECM): 22.65±7.851%
CSPG-ECM area lower than liraglutide group (ARC CSPG-ECM): 31.56±3.73%
insulin induced p-AKT signalling in the ARC [3]: enhanced
